Tests used:
novel coronavirus = test: In vitro inhibition of cytopathic effect caused by novel coronavirus in Vero E6 cells (CCK8); format: cell-based, COVID-19 novel coronavirus; conditions: for inhibition of cytopathic effect caused by the novel coronavirus (in words): Vero E6, summary of Table 1
IL-6 mRNA = format: cell-based, African green monkey; conditions: 350 μg/mL; virus control 7.68 ± 0.50, blank 1.08 ± 0.07
Claudin-1 mRNA = test: Expression of intestinal tissue tight junction protein in LPS mice, jejunum, quantitative PCR (Claudin-1); format: in vivo; conditions: 100 mg/kg, model 0.73 ± 0.13, blank 1.07 ± 0.11
Description: (§1) Grouping and administration of animals: the animals were randomly divided into a blank group, a model group, a lysozyme group (100 mg/kg), a lysozyme+monoammonium glycyrrhizinate group A (100 mg/kg+2 mg/kg), a lysozyme+monoammonium glycyrrhizinate group B (100 mg/kg+10 mg/kg), a lysozyme+monoammonium glycyrrhizinate group C (100 mg/kg+20 mg/kg), and a lysozyme+dipotassium glycyrrhizinate group (100 mg/kg+2 mg/kg), with eight animals in each group. Each drug group was administrated by oral gavage according to the dosage every day, while the blank group and the model group were administrated with normal saline. The administration was continuously performed for 30 days.
(§2) Modeling: after the administration, the animals of each group except the blank group were intraperitoneally injected with 15 mg/kg lipopolysaccharide, and the blank group was injected with the normal saline. The animals were fasted for 12 hours after injection.
(§3) Determination of the expression of intestinal tissue tight junction protein: after the animals were killed, the jejunum tissue sample was taken to extract RNA, and relative expression levels of […] in the tissue were detected by quantitative PCR.

Occludin mRNA = test: Expression of intestinal tissue tight junction protein in LPS mice, jejunum, quantitative PCR (occludin); format: in vivo; conditions: 100 mg/kg, model 0.54 ± 0.09, blank 1.04 ± 0.12
Description: as §1, §2, §3

[1] = tested on: guinea pig inhaling smoke; test: Airway resistance and lung function of guinea pig inhaling smoke; format: in vivo; conditions: once daily 4 weeks
Description: A smoked model is a classic animal modeling method of chronic obstructive pulmonary disease. After inhaling smoke for a long time, the animal may suffer from increase of mucus secretion, airway obstruction, and decrease of lung function. The effect of lysozyme on the airway obstruction was evaluated by the modeling method.
Male Hartley guinea pigs with weights ranging from 400 g to 500 g were randomly divided into a blank group, a model group, a lysozyme oral administration group (200 mg/kg), a lysozyme inhalation group (2 mg/kg), a lysozyme+monoammonium glycyrrhizinate inhalation group (2 mg/kg+0.1 mg/kg), a lysozyme+monopotassium glycyrrhizinate oral administration group I (200 mg/kg+20 mg/kg), and a lysozyme+monopotassium glycyrrhizinate oral administration group II (200 mg/kg+40 mg/kg), with eight animals in each group.
The animals in each group except the blank group were exposed to cigarette smoke by using a smoke exposure system inhaled only through nose and mouth, so that the animals inhaled smoke of five cigarettes within 40 minutes every day, for 5 days every week, and for 12 consecutive weeks.
Lysozyme and monoammonium glycyrrhizinate used for inhalation administration were respectively crushed into powder with a particle size less than […]. Then lysozyme and monopotassium glycyrrhizinate used for oral administration were respectively dissolved in normal saline.
The animals in each group except the blank group and the model group were administrated once every day for 4 consecutive weeks from the 8t^h week after modeling. The inhalation groups were administrated by a mouth and nose inhalation exposure system, while the oral administration groups were administrated by oral gavage. The blank group and the model group were administrated by oral gavage with normal saline every day.
Airway resistance measurement and the measurement of force expiratory volume in 100ms(millisecond) were performed after administration.
The animals were placed in a double chamber plethysmography system, and a specific airway resistance (sRaw) was measured after the animals were quiet for 10 minutes. The animals were anesthetized by intramuscular injection of ketamine, then a catheter was inserted into the trachea, and the force expiratory volume in 100ms […] was measured by a lung function detection system.

[2] = tested on: intestinal barrier dysfunction of mice induced by lipopolysaccharide; test: Intestinal permeability (serum FITC-glucan) in mice with intestinal barrier dysfunction induced by lipopolysaccharide; format: in vivo; conditions: 100 mg/kg oral gavage 30 days; model 35.06 ± 5.75, blank 9.40 ± 1.45
Description: Lipopolysaccharide could cause intestinal dysfunction of animals. The protective effects of the lysozyme and the combination containing lysozyme on the intestinal barrier dysfunction of mice induced by the lipopolysaccharide were researched in the test.
Test animals: male C57BL/6 mice with a cleaning degree, and with a weight ranging from 20 g to 25 g.
as §1, with “days. […]” for “days.”
Measurement of intestinal permeability: animals of each group were administrated by oral gavage with 600 mg/kg FITC-glucan (dissolved in a phosphate buffer), and blood was taken from an eyeball after 4 hours. The content of the FITC-glucan in serum was measured by fluorescence spectrometry (with an excitation wavelength of 480 nm and an emission wavelength of 520 nm).

TNF-α mRNA = format: cell-based, African green monkey; conditions: 350 μg/mL; virus control 3.61 ± 0.29, blank 1.01 ± 0.06
[3] = 1,000 μg/mL, Vero E6, 100TCID50, 4 days
[4] = 2,000 μg/mL, Vero E6, 100TCID50, 4 days

| Molecule | Inhibition rate (%) on cytopathic effect (novel coronavirus; [3]) [%] | Inhibition rate (%) on cytopathic effect (novel coronavirus; [4]) [%] | inhibition of cytopathic effect caused by the novel coronavirus (in words) (novel coronavirus) | IL-6 mRNA Relative expression quantity (IL-6 mRNA) | Claudin-1 mRNA Relative expression quantity (Claudin-1 mRNA) | Occludin mRNA Relative expression quantity (Occludin mRNA) | Inhibition rate (%) on cytopathic effect (novel coronavirus; 350 μg/mL, Vero E6) [%] | Inhibition rate (%) on cytopathic effect (novel coronavirus; 500 μg/mL, Vero E6, 100TCID50, 4 days) [%] | Airway resistance ([1]; inhalation, 2 mg/kg) [cmH2O · s] | Force expiratory volume in 100 ms ([1]; inhalation, 2 mg/kg) [mL] | Force expiratory volume in 100 ms ([1]; oral administration, 200 mg/kg, model 4.18 ± 1.26, blank 11.86 ± 1.24) [mL] | Airway resistance ([1]; oral administration, 200 mg/kg, model 4.72 ± 0.38, blank 1.43 ± 0.24) [cmH2O · s] | Content of FITC-glucan (serum) [2] [µg/mL] | TNF-α mRNA Relative expression quantity (TNF-α mRNA) |
| --- | --- | --- | --- | --- | --- | --- | --- | --- | --- | --- | --- | --- | --- | --- |
| CC1(C)[C@@H](O[C@H]2O[C@H](C(=O)O)[C@@H](O)[C@H](O)[C@H]2O[C@@H]2O[C@H](C(=O)O)[C@@H](O)[C@H](O)[C@H]2O)CC[C@]2(C)[C@H]3C(=O)C=C4[C@@H]5C[C@@](C)(C(=O)O)CC[C@]5(C)CC[C@@]4(C)[C@]3(C)CC[C@@H]12.N [Monoammonium glycyrrhizinate, monoammonium glycyrrhizinate, reference compound] | 23.35 ± 5.43 | 29.42 ± 7.16 | weak inhibition effect | – | – | – | – | – | – | – | – | – | – | – |
| Lysozyme | 46.67 ± 15.28 | 78.33 ± 2.89 | significantly inhibit | 6.78 ± 0.30 | 0.79 ± 0.16 | 0.69 ± 0.07 | 6.67 ± 1.56 | 15.00 ± 8.66 | 3.10 ± 0.14 | 7.68 ± 1.36 | 5.79 ± 2.03 | 3.79 ± 0.30 | 27.53 ± 3.21 | 3.12 ± 0.26 |

Reference: patent publication US20230158124A1, “DRUG, FOOD AND APPLICATION OF ANTI-CORONAVIRUS INFECTION” (priority 2020, published 2023)
